Reference: patent US11795150B2, “Synthesis of triethylenetetramines” (Philera New Zealand Limited, priority 2004, dated 2023)

Conditions: 80° C. for nine days

Structure (SMILES) | Changes in IR, 1H-NMR and DSC after heat exposure
NCCNCCNCCN.O=C(O)/C=C/C(=O)O.O=C(O)/C=C/C(=O)O.O=C(O)/C=C/C(=O)O.O=C(O)/C=C/C(=O)O [Fumaric, triethylenetetramine tetrafumarate] | no changes
NCCNCCNCCN.O=C(O)/C=C\C(=O)O.O=C(O)/C=C\C(=O)O.O=C(O)/C=C\C(=O)O.O=C(O)/C=C\C(=O)O [Maleic, triethylenetetramine tetramaleate] | no changes
NCCNCCNCCN.O=C(O)CCC(=O)O.O=C(O)CCC(=O)O [Succinic, triethylenetetramine disuccinate] | no changes
